Test results reported in ChEMBL document CHEMBL4680093 (J Med Chem, 2016).
pIC50: −log10 of the molar value.

Experiments:
[1] = target: T1, 11-beta-hydroxysteroid dehydrogenase type 2 (Homo sapiens) (UniProt P80365); assay: Inhibition of human 11beta-HSD2 expressed in microsomes at 1 uM relative to control; conditions: Microsome
T1 sequence (whole entry): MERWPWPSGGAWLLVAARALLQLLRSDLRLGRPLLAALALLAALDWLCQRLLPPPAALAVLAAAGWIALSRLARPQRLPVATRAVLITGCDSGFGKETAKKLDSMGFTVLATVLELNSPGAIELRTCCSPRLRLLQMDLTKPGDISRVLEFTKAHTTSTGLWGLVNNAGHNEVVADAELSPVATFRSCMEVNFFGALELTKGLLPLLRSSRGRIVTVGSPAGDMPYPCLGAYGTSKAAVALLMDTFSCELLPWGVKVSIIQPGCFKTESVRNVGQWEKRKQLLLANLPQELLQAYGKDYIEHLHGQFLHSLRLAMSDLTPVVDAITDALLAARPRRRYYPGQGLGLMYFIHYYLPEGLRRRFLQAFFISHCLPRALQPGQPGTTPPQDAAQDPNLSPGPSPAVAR

[2] = target: T2, 11-beta-hydroxysteroid dehydrogenase type 2 (Homo sapiens, UniProt P80365); assay: Inhibition of human 11beta-HSD2 expressed in microsomes; parameters: species or system Microsome
T2 sequence (P80365 whole entry): T1 sequence (whole entry)

[3] = Half life in mouse at 1 mg/kg, iv; assay type: ADME, organism-based; conditions: in vivo
[4] = Cmax in rat at 5 mg/kg, po; assay type: ADME, organism-based; parameters: route oral, dose 5 mg/kg; conditions: in vivo

SMILES: C[C@@H]1CN(c2ccc(S(C)(=O)=O)cc2F)CCN1c1nccc(C(=O)NC2C3CC4CC2CC(O)(C4)C3)n1 (some centres undefined)
- inhibition [1]: 6%
- pIC50 [2]: < 5.00
- half-life [3]: 1.7 h
- Cmax [4]: 1020 ng/mL
